# Experimental data taken from ChEMBL document CHEMBL2040784, “Design and synthesis of peptides from bacterial ParE toxin as inhibitors of topoisomerases” (Eur J Med Chem, 2012).
# Active and inactive are the calls of the source. The rule behind the calls is not given here. Where a SMILES comes first, the peptide text is derived from it.
# How the values were obtained:
# [1] = target: DNA topoisomerase 2-alpha (Homo sapiens) (UniProt P11388); assay: Inhibition of human topoisomerase 2-mediated DNA cleavage assessed as relaxation of supercoiled pBR322 after 1 hr by gel electrophoresis assay
# Escherichia coli [2] = assay: Inhibition of Escherichia coli DNA gyrase supercoiling activity using relaxed pBR322 DNA after 1 hr by gel electrophoresis assay
# Escherichia coli [3] = assay: Inhibition of Escherichia coli DNA gyrase supercoiling activity using relaxed pBR322 DNA at 20 umol/L after 1 hr by gel electrophoresis assay
# Escherichia coli [4] = assay: Inhibition of Escherichia coli topoisomerase-4-mediated DNA cleavage assessed as relaxation of supercoiled pBR322 after 1 hr by gel electrophoresis assay
# Escherichia coli [5] = assay: Inhibition of Escherichia coli topoisomerase-4-mediated DNA cleavage assessed as relaxation of supercoiled pBR322 at <75 umol/L after 1 hr by gel electrophoresis assay
# Sequence of DNA topoisomerase 2-alpha (Homo sapiens) (P11388 whole entry): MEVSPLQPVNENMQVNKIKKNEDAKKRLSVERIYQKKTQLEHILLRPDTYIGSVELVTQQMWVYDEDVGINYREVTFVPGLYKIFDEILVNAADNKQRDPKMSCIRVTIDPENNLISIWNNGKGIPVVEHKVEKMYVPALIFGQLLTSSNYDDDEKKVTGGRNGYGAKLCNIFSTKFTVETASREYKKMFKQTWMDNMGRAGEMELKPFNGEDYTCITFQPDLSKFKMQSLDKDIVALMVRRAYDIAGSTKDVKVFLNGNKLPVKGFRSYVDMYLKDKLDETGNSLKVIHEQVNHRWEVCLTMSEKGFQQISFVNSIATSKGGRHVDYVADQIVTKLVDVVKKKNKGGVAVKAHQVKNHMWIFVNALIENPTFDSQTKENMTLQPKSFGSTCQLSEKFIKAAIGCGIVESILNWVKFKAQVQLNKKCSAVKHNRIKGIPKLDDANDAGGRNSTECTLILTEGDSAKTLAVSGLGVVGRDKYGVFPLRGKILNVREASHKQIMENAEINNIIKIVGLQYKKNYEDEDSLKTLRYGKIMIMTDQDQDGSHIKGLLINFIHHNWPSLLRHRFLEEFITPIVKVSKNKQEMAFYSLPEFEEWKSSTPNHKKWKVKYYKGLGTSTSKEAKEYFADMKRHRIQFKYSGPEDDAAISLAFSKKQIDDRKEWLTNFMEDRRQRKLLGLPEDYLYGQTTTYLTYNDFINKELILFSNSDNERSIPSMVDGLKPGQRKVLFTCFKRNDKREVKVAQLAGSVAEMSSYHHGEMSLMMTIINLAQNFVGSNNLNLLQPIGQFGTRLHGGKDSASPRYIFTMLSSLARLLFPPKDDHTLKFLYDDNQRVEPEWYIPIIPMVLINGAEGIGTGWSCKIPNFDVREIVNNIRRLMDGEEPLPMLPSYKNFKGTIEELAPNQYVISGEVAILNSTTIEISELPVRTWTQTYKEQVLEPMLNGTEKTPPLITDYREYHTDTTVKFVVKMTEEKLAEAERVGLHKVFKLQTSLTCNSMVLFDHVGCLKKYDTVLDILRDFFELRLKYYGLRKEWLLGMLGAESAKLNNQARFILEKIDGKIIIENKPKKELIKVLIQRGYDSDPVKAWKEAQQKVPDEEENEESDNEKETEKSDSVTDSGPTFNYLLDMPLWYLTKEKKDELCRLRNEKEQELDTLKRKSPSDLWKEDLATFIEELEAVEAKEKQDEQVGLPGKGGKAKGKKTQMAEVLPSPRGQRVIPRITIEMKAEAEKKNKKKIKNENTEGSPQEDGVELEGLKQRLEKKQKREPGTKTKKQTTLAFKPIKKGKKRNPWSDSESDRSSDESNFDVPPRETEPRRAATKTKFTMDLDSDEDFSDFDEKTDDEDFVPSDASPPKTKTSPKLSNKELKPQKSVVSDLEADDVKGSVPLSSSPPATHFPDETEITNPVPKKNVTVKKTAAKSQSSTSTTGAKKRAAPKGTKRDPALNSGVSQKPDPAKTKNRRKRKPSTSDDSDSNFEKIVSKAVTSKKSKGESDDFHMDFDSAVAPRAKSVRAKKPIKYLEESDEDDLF
inhibition [1],IC100 (Escherichia coli [2]) [µmol/L],inhibition (Escherichia coli [3]) [%],IC100 (Escherichia coli [4]) [µmol/L],IC100 [1] [µmol/L],inhibition (Escherichia coli [5]),Molecule
inactive,–,–,–,–,–,CC[C@H](C)[C@H](NC(=O)[C@H](C)NC(=O)[C@@H](NC(=O)[C@@H](NC(=O)[C@H](CC(C)C)NC(=O)[C@H](C)NC(=O)[C@@H]1CCCN1C(=O)[C@H](C)NC(=O)[C@H](CO)NC(=O)CNC(=O)[C@H](Cc1cnc[nH]1)NC(=O)[C@@H]1CCCN1C(=O)[C@H](CC(C)C)NC(=O)[C@H](CS)NC(=O)[C@H](Cc1ccccc1)NC(=O)[C@@H](NC(=O)[C@H](Cc1ccc(O)cc1)NC(=O)[C@H](Cc1cnc[nH]1)NC(=O)[C@H](Cc1cnc[nH]1)NC(=O)[C@H](CCC(=O)O)NC(=O)[C@H](CS)NC(=O)[C@H](Cc1cnc[nH]1)NC(=O)[C@@H](NC(=O)[C@H](CCSC)NC(=O)[C@H](CCCNC(=N)N)NC(=O)[C@@H](N)CC(C)C)[C@@H](C)CC)C(C)C)C(C)C)C(C)C)C(=O)N[C@@H](Cc1ccccc1)C(=O)O (H-LRMIHCEHHYVFCLPHGSAPALVVAIF-OH)
inactive,> 20,93,10,–,–,H-PALVVAIFHERMDLMARLSER-OH
–,50,–,25,50,–,CC[C@H](C)[C@H](NC(=O)[C@H](CCSC)NC(=O)[C@H](CCCNC(=N)N)NC(=O)[C@@H](N)CC(C)C)C(=O)N[C@@H](Cc1cnc[nH]1)C(=O)N[C@@H](CS)C(=O)N[C@@H](CCC(=O)O)C(=O)N[C@@H](Cc1cnc[nH]1)C(=O)N[C@@H](Cc1cnc[nH]1)C(=O)N[C@@H](Cc1ccc(O)cc1)C(=O)N[C@H](C(=O)N[C@@H](Cc1ccccc1)C(=O)N[C@@H](CS)C(=O)N[C@@H](CC(C)C)C(=O)N1CCC[C@H]1C(=O)N[C@@H](Cc1cnc[nH]1)C(=O)NCC(=O)N[C@@H](CO)C(=O)N[C@@H](C)C(=O)O)C(C)C (H-LRMIHCEHHYVFCLPHGSA-OH)
–,–,–,–,–,inactive,H-HYVFCLPHGSAPALVVAIFHERMDLMARLSERLNIES-OH
